The values below come from patent publication US20230107216A1, “PANTETHEINE DERIVATIVES AND USES THEREOF” (Comet Therapeutics, Inc., priority 2018, published 2023).

Assay [1] concerns primary fibroblasts (healthy controls and PA, MMA, BCKDK, PDH, VLCAD, LS, PC, GA, VLCFA, KSS, FXN, HD). Put plainly: Measurement of ROS (H2DCFDA) in primary fibroblasts. It is filed as cell-based, human. The conditions noted are these: procedure Example 812; for inhibition at 10 µM: Homo sapiens. The method in brief: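 Patient and healthy-control primary fibroblasts switched to supplemented DMEM 24 h before assay, then treated with compound (10 μM) plus H2DCFDA (22 μM) for 2 h (PA, MMA lines) or 24 h (other lines). Kinetic fluorescence at 492/527 nm over 60 min; only live cells analysed.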

Assay [2] relates to Methylmalonic Acidemia (MMA) primary fibroblasts Tsi 5224. Nature of the assay: Mitochondrial respiration, XFe96 Extracellular Flux Analyzer (OCR/ECAR), MMA fibroblasts Tsi 5224.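 On Increase in Maximal Respiratory Capacity AUC: relative to vehicle DMSO control.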 It is filed as cell-based. The conditions noted are these: Homo sapiens, Fibroblast. The method, boiled down: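 Primary fibroblasts (20000 cells/well) were held 24 h in supplemented DMEM before Seahorse OCR/ECAR profiling. Compounds at 10 to 50 μM or 0.1% DMSO were injected after baseline, then oligomycin 1 μg/ml, FCCP, and rotenone/antimycin A 0.5 μM. Values were normalized to Hoechst nuclear counts, baselined to pre-compound, and expressed relative to vehicle.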

Where [3] appears, read: Fibroblast, BCKD GM00649, Assay Condition C, read-out: Decreased ROS by at least 10%.
Where [4] appears, read: Fibroblast, BCKD GM00649, Assay Condition C, read-out: Decreased ROS by at least 30%.
The mark [5] stands for this setting: MMA Tsi 5224, assay condition A (10 mM glucose, 2 mM L-glutamine, 1 mM pyruvate, 10% FBS), read-out: Increase in Maximal Respiratory Capacity AUC.
Where [6] appears, read: MMA Tsi 5224, assay condition D (1 mM glucose, 10% FBS), read-out: Increase in Maximal Respiratory Capacity AUC.
The mark [7] stands for this setting: Fibroblast, BCKD GM00612, Assay Condition A, read-out: Decreased ROS by at least 10%.
Where [8] appears, read: Fibroblast, VLCFA GM13262, Assay Condition C, read-out: Decreased ROS by at least 30%.
The mark [9] stands for this setting: FXN GM04078, Assay Condition C, read-out: Decreased ROS by at least 10%.
Where [10] appears, read: FXN GM04078, Assay Condition C, read-out: Decreased ROS by at least 30%.
Setting [11] is: MMA Tsi 5224, assay condition D (1 mM glucose, 10% FBS), read-out: Increase in Spare Capacity AUC.
Setting [12] is: Fibroblast, NPC1 GM22879, Assay Condition C, read-out: Decreased ROS by at least 30%.
Where [13] appears, read: Fibroblast, PDH GM01503, Assay Condition C, read-out: Decreased ROS by at least 10%.
Where [14] appears, read: Fibroblast, PDH GM01503, Assay Condition C, read-out: Decreased ROS by at least 30%.
Setting [15] is: Fibroblast, VLCAD GM17475, Assay Condition C, read-out: Decreased ROS by at least 10%.
Where [16] appears, read: Fibroblast, VLCAD GM17475, Assay Condition C, read-out: Decreased ROS by at least 30%.

Molecules are shown by their SMILES. Where two headings read alike, the source gives them in different places.

`COC(=O)C(C)C(=O)SCCNC(=O)CCNC(=O)[C@H](O)C(C)(C)CO` (some centres unmarked) [Compound 405]: the inhibition at 10 µM in assay [1] (setting [3]) was at least 10%; in assay [1] (setting [4]) it was at least 30%.
In the case of `CCC(C)C(=O)CC(=O)SCCNC(=O)CCNC(=O)[C@H](O)C(C)(C)CO` (stereo partly drawn) [Compound 1240, S-(2-(3-((R)-2,4-dihydroxy-3,3-dimethylbutanamido)propanamido)ethyl) 4-methyl-3-oxohexanethioate], the activation at 10 µM in assay [2] (setting [5]) and in assay [2] (setting [6]) was at least 10% each time. The inhibition at 10 µM in assay [1] (setting [7]) is at least 10%; in assay [1] (setting [8]), at least 30%; in assay [1] (setting [9]) it was at least 10%; in assay [1] (setting [10]), at least 30%.
Turning to `COC(=O)CCC(=O)SCCNC(=O)CCNC(=O)[C@H](O)C(C)(C)CO` [Compound 4, Methyl (R)-4-((2-(3-(2,4-dihydroxy-3,3-dimethylbutanamido)propanamido)ethyl)thio)-4-oxobutanoate], the activation at 10 µM in assay [2] (setting [5]), in assay [2] (setting [6]) and in assay [2] (setting [11]) was at least 10% throughout. The inhibition at 10 µM was at least 10% in assay [1] (setting [3]) and at least 30% in assay [1] (setting [4]).
Take `COC(=O)CC[C@H](N)C(=O)SCCNC(=O)CCNC(=O)[C@H](O)C(C)(C)CO` [Compound 411]: the activation at 10 µM in assay [2] (setting [6]) and in assay [2] (setting [11]) was at least 10% throughout. Further, the inhibition at 10 µM is at least 10% in assay [1] (setting [7]), at least 30% in assay [1] (setting [8]), at least 10% in assay [1] (setting [9]) and at least 30% in assay [1] (setting [10]).
For `CC(O)C(C(=O)SCCNC(=O)CCNC(=O)[C@H](O)C(C)(C)CO)C(C)O` (stereo partly drawn) [Compound 1285, (2R)-2,4-dihydroxy-N-[2-[(2-[[3-hydroxy-2-(1-hydroxyethyl)butanoyl]sulfanyl]ethyl)carbamoyl]ethyl]-3,3-dimethylbutanamide], the inhibition at 10 µM is at least 10% in assay [1] (setting [7]) and at least 30% in assay [1] (setting [12]).
For the compound `CC(C)(CO)[C@@H](OC(=O)CCC(=O)O)C(=O)NCCC(=O)NCCS` [Compound 1311, (R)-4-((4-hydroxy-1-((3-((2-mercaptoethyl)amino)-3-oxopropyl)amino)-3,3-dimethyl-1-oxobutan-2-yl)oxy)-4-oxobutanoic acid], the activation at 10 µM in assay [2] (setting [5]) and in assay [2] (setting [6]) was at least 10% throughout. Besides, the inhibition at 10 µM was at least 10% in assay [1] (setting [7]), at least 30% in assay [1] (setting [8]), at least 10% in assay [1] (setting [9]) and at least 30% in assay [1] (setting [10]).
As for `CCCCCCC(=O)SCCNC(=O)CCNC(=O)[C@H](O)C(C)(C)CO` [Compound 372, (2R)—N-(2-[[2-(heptanoylsulfanyl)ethyl]carbamoyl]ethyl)-2,4-dihydroxy-3,3-dimethylbutanamide], the inhibition at 10 µM was at least 10% in assay [1] (setting [9]) and at least 30% in assay [1] (setting [10]).
With `C/C=C/C(=O)SCCNC(=O)CCNC(=O)[C@H](O)C(C)(C)COP(=O)(O)O` [Compound 82, (R)—S-(2-(3-(2-hydroxy-3,3-dimethyl-4-(phosphonooxy)butanamido)propanamido)ethyl) (E)-but-2-enethioate], in assay [2] (setting [6]), the activation at 10 µM was at least 10%.
Regarding `CC(C)(CO)[C@@H](O)C(=O)NCCC(=O)NCCSC(=O)CC(=O)CCC(=O)O` [Compound 2, 6-[(2-[3-[(2R)-2,4-dihydroxy-3,3-dimethylbutanamido]propanamido]ethyl)sulfanyl]-4,6-dioxohexanoic acid], the inhibition at 10 µM in assay [1] (setting [7]) was at least 10%; in assay [1] (setting [4]) it was at least 30%; in assay [1] (setting [9]) it was at least 10%; in assay [1] (setting [10]), at least 30%.
On to `CC(=O)SCCNC(=O)CCNC(=O)[C@H](O)C(C)(C)COC(=O)CCC(=O)O` [Compound 1242, (R)-12-hydroxy-13,13-dimethyl-2,7,11,16-tetraoxo-15-oxa-3-thia-6,10-diazanonadecan-19-oic acid], for which the activation at 10 µM in assay [2] (setting [6]) was at least 10%.
In the case of `CC(=O)OCC(C)(C)[C@@H](O)C(=O)NCCC(=O)NCCSC(=O)CC(=O)CCC(=O)O` [Compound 140, 6-[(2-[3-[(2R)-4-(acetyloxy)-2-hydroxy-3,3-dimethylbutanamido]propanamido]ethyl)sulfanyl]-4,6-dioxohexanoic acid], the inhibition at 10 µM was at least 30% in assay [1] (Fibroblast, Leigh GM13411, Assay Condition C, read-out: Decreased ROS by at least 30%) and at least 10% in assay [1] (setting [13]).
As for `CC(=O)SCCNC(=O)CCNC(=O)[C@H](O)C(C)(C)COC(=O)CN` [Compound 560, (3R)-3-[(2-[[2-(acetylsulfanyl)ethyl]carbamoyl]ethyl)carbamoyl]-3-hydroxy-2,2-dimethylpropyl 2-aminoacetate], in assay [1] (setting [9]), the inhibition at 10 µM was at least 10%.
In the case of `CC(C)(CO)[C@@H](O)C(=O)NCCC(=O)NCCSC(=O)CCC(=O)O` [Compound 1, (R)-4-((2-(3-(2,4-dihydroxy-3,3-dimethylbutanamido)propanamido)ethyl)thio)-4-oxobutanoic acid], the activation at 10 µM in assay [2] (setting [5]) was at least 10%; in assay [2] (MMA Tsi 5224, assay condition B (1 mM glucose, 2 mM L-glutamine, 1 mM pyruvate, 10% FBS), read-out: Increase in Maximal Respiratory Capacity AUC), at least 10%.
Turning to `CC(C)(COC(=O)CCC(=O)O)[C@@H](O)C(=O)NCCC(=O)NCCS` [Compound 1310, (R)-4-(3-hydroxy-4-((3-((2-mercaptoethyl)amino)-3-oxopropyl)amino)-2,2-dimethyl-4-oxobutoxy)-4-oxobutanoic acid], the results for the inhibition at 10 µM in assay [1] (setting [7]) and in assay [1] (setting [8]) were at least 10% and at least 30%, respectively.
With `C[C@H](O)CC(=O)CC(=O)SCCNC(=O)CCNC(=O)[C@H](O)C(C)(C)CO` [Compound 1306, (2R)-2,4-dihydroxy-N-[2-[(2-[[(5S)-5-hydroxy-3-oxohexanoyl]sulfanyl]ethyl)carbamoyl]ethyl]-3,3-dimethylbutanamide], the “Decreased ROS by at least 30%” value in assay [1] (Healthy GM05659, Assay Condition A) was at least 30%; in assay [1] (Healthy GM23974, Assay Condition A) it was at least 30%. In addition, the inhibition at 10 µM in assay [1] (setting [13]) was at least 10%; in assay [1] (setting [14]), at least 30%; in assay [1] (setting [9]), at least 10%; in assay [1] (setting [10]), at least 30%.
As to `CC(C)(CO)[C@@H](O)C(=O)NCCC(=O)NCCSC(=O)CCCO` [Compound 1304, (2R)-2,4-dihydroxy-N-[2-([2-[(4-hydroxybutanoyl)sulfanyl]ethyl]carbamoyl)ethyl]-3,3-dimethylbutanamide], the inhibition at 10 µM was at least 10% in assay [1] (setting [13]) and at least 30% in assay [1] (setting [14]).
As to `CC(O)CC(O)CC(O)CC(=O)SCCNC(=O)CCNC(=O)[C@H](O)C(C)(C)CO` (some centres unmarked) [Compound 401], the results for the inhibition at 10 µM in assay [1] (setting [15]) and in assay [1] (setting [16]) were at least 10% and at least 30%, respectively.
For `CC[C@@H](O)CC(=O)SCCNC(=O)CCNC(=O)[C@H](O)C(C)(C)CO` [Compound 1245, (2R)-2,4-dihydroxy-N-{2-[(2-{[(3R)-3-hydroxypentanoyl]sulfanyl}ethyl)carbamoyl]ethyl}-3,3-dimethylbutanamide], the inhibition at 10 µM in assay [1] (setting [15]) is at least 10%; in assay [1] (setting [16]) it was at least 30%.
Regarding `COC(=O)CCC(=O)SCCNC(=O)CCNC(=O)[C@H](O)C(C)(C)COC(C)=O` [Compound 138], the inhibition at 10 µM in assay [1] (Fibroblast, NPC1 GM22879, Assay Condition C, read-out: Decreased ROS by at least 10%) is at least 10%; in assay [1] (setting [12]), at least 30%; in assay [1] (setting [9]) it was at least 10%.
As to `CC(C)(CO)[C@@H](O)C(=O)NCCC(=O)NCCSC(=O)C1CCC(=O)N1` (stereo partly drawn) [Compound 1227, S-2-{3-[(R)-2,4-dihydroxy-3,3-dimethylbutyrylamino]propionylamino}ethyl 5-oxo-2-pyrrolidinecarbothioate], the activation at 10 µM in assay [2] (setting [6]) and in assay [2] (setting [11]) was at least 10% throughout.
